# Experimental data from ChEMBL document CHEMBL1126532, “Excitatory amino acid receptor atagonists: synthesis and pharmacology of 3-(carboxymethoxy)isoxazoles derived from AMPA” (Bioorg Med Chem Lett, 1993).
# Experiments:
# [1] = target: Glutamate receptor ionotropic, kainate; experiment: Binding affinity by measuring displacement of [3H]KAIN from Ionotropic glutamate receptor kainate in rat cortical slice preparation
# Glutamate NMDA receptor = experiment: Binding affinity by measuring displacement of [3H]CPP from NMDA receptor in rat cortical slice preparation
# [2] = target: Glutamate receptor ionotropic, AMPA (Rattus norvegicus, UniProt P19490+P19491+P19492+P19493); experiment: Binding affinity by measuring displacement of [3H]AMPA from Ionotropic glutamate receptor AMPA in rat cortical slice preparation
# [3] = target: Glutamate receptor ionotropic, AMPA (Rattus norvegicus) (UniProt P19491+P19492+P19493+P19490); experiment: Binding affinity by measuring displacement of [3H]AMPA from Ionotropic glutamate receptor AMPA in rat cortical slice preparation at 100 uM
IC50 [1] [µM],IC50 (Glutamate NMDA receptor) [µM],IC50 [2] [µM],inhibition [3] [%],SMILES
> 100,4.5,> 100,–,Cc1o[nH]c(=O)c1C(N)C(=O)O (configuration not stated)
> 100,> 100,90,–,Cc1onc(OCC(=O)O)c1CC(N)C(=O)O (configuration not stated)
> 100,> 100,> 100,40,NC(Cc1c(OCC(=O)O)noc1C(F)(F)F)C(=O)O (configuration not stated)
> 100,16,> 100,–,O=C(O)COc1noc2c1CC(C(=O)O)NC2 (configuration not stated)
> 100,> 100,> 100,–,Cc1onc(OCC(=O)O)c1C(N)C(=O)O (configuration not stated)

SMILES,IC50 [1] [µM],IC50 (Glutamate NMDA receptor) [µM],IC50 [2] [µM],inhibition [3] [%]
C=C(C)[C@H]1CN[C@H](C(=O)O)[C@H]1CC(=O)O [KAINIC ACID],–,> 100,–,–
